Data set [1] deals with T1, membrane colocalisation of CNKSR1 and mutant-KRas (Homo sapiens, UniProt Q969H4).
T1 construct: fluorescent protein (GFP or mRFP); expressed in transfected cells; host or cells: HEK293T
T1 sequence (Q969H4 1-720): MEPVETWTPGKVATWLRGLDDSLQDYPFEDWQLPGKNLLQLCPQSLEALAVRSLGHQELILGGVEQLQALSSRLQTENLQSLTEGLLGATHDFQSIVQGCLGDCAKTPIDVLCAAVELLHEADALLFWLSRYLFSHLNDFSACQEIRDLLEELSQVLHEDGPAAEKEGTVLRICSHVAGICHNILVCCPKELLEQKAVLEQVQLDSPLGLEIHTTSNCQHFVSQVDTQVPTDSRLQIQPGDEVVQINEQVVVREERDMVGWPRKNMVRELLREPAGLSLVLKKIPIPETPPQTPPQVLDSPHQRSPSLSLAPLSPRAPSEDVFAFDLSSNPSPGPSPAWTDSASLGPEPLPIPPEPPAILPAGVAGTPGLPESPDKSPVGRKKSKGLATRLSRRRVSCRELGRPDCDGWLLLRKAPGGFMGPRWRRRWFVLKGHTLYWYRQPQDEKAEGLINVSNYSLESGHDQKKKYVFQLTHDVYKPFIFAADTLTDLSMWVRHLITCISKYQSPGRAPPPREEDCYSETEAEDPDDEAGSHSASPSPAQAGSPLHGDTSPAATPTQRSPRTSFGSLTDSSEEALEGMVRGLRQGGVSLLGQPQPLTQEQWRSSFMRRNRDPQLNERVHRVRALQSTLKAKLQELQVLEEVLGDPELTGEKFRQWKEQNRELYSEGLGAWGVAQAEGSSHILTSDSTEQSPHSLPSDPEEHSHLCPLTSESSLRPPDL
Put plainly: Confocal imaging of CNKSR1 / mutant KRas colocalisation. Type of data set: cell-based. The conditions noted are these: FIG. 12. Here is the method:
HEK293T cells were co-transfected with CNK and either wild type or G12D mutant KRAS. Twenty-four hours post-transfection, cells were seeded on glass coverslips and allowed to grow a further 24 h and then serum deprived overnight. Cells were fixed with 4% (w/v) paraformaldehyde pH 8.0 for 20 min at room temperature. Following 6-7 washes with PBS (pH 8.0) the coverslip was mounted onto a slide with mounting medium (0.1% p-phenylenediamine/75% glycerol in PBS at pH 7.5-8.0). Confocal laser scanning microscopy was performed with a Leica SP5 confocal microscope system with 63× oil-immersion objective (numerical aperture NA=1.4), a line scan speed of 600 Hz, with image size of 1024×1024 pixels. GFP was excited with an argon-visible light laser tuned to 488 nm, mRFP were excited with a […] tuned to 543 nm GFP and RFP fluorescence emissions were collected using a photomultiplier tube via 514/10 nm and 595/10 nm band selections respectively.

Data set [2] concerns A549 (KRAS mutant cell line). Put plainly: Proliferation Assay A549. The data set is classed as cell-based. The conditions noted are these: Homo sapiens, N = 2 experiments. In a few lines: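 Cells plated 2000 per well, allowed 24 h to attach, then exposed 72 h to agents (0-100 μM for isogenic lines; 0.01 to 50 μM for the RPMI 1640/10% FBS-cultured 30-line NSCLC panel). MTS read at 490 nm after 2 h, normalized to no-cell and no-drug controls; IC50 from curve fitting.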

A further data set addresses T2, AKT1 PH-domain (Homo sapiens, UniProt P31749).
T2 construct: The PH-domain His-fusion proteins (CNK1 and AKT1) were expressed and immobilized on a NTA chip; made in house
The data set can be described thus: SPR binding assay (Biacore T100), AKT1 PH-domain. The conditions noted are these: Table 6; read-out: AKT KD. In a few lines: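 His-tagged AKT1 PH domain immobilized on NTA chip to ≤10,000 RU, Biacore T100. Small-molecule analytes injected at 50 μM to 0.010 μM, 30 μL/min, with 1-5% (v/v) DMSO in samples and running buffer.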

The nature of data set [3]: Pharmacokinetics after oral administration. The data set is classed as in vivo, mice. The conditions noted are these: for elimination half life: oral, mice. Here is the method:
In order to understand better the reasons for the antitumor activity of compound #7 pharmacokinetic studies were conducted. […] Following oral administration in vivo plasma concentrations of the parent compound were low, about 3 μg/ml (7 μM) whereas the de-esterified acid form (compound 8) was present at high peak concentrations of around 50 μg/ml (128 μM). When compound 8 was administered orally to mice at the same dose even higher peak concentrations of 90 μg/ml (230 μM) were achieved.

Usually IC50 stands for the concentration at which inhibition is half-maximal. A word on the Kd: it is the free concentration of one partner at which half of the binding sites on the other are occupied at equilibrium, for simple one-to-one binding.

Molecules are shown by their SMILES. Values joined by “and” are separate entries in the source; they are usually repeats but may differ in a detail not shown here. Identical values can stand only once.

T2 sequence (P31749 5-108 limits assumed): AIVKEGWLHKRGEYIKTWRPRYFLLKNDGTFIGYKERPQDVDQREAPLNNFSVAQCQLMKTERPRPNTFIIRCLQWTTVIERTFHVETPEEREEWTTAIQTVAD

As to `CCOC(=O)Cc1nn(Cc2nc(-c3ccc(C)cc3)cs2)c(=O)c2ccccc12` [Compound 7], in data set [1], the “membrane colocalisation of CNKSR1 and mutant-KRas at the plasma membrane” value is “blocking”; the “total mutant KRas protein in the cell” value was “lower”. The half-maximal inhibitory concentration (IC50) in data set [2] turned out to be 15 µM. The Kd on AKT1 PH-domain was 17.3 µM. Besides, the “plasma concentration of the parent compound” value in data set [3] (compound #7 orally 200 mg/kg, 200 mg/kg) was “about 3 μg/ml and ~7 μM”. This compound returned an elimination half life in data set [3] of 13 h. In data set [3] (listed as #7), this compound returned an elimination half life of 6 h. Further, in data set [3] (orally 200 mg/kg, FIG. 4B), the “metabolism in vivo to the acid metabolite” value was “rapidly de-esterified”.

The values are drawn from patent publication US9340532B2, “Methods and compositions for inhibiting CNKSR1” (PHUSIS THERAPEUTICS, INC., priority 2012, dated 2016).
